Results as given in the METLIN SMRT retention time set (Domingo-Almenara et al. 2019).

Test: gradient 5% acetonitrile 3 min, to 50% in 2 min, to 85% in 15 min, held 3 min, 100 µL/min
Conditions: column: Zorbax Extend-C18 2.1 x 50 mm; eluents: water / acetonitrile, 0.1% formic acid
Procedure, shortened: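 Pure standards were run in mixtures of ~100 molecules by HPLC coupled to a quadrupole time-of-flight mass spectrometer. The column was a Zorbax Extend-C18 (2.1 × 50 mm, 1.8 μm) at 100 μL/min, with water and acetonitrile each containing 0.1% formic acid, in positive and negative ionization mode. Dead and dwell volumes were 40 μL and 900 μL. Retention time was taken from computationally picked adduct peaks, each manually inspected, with data collected over 3 months.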

RP-LC retention time [s] | SMILES
754 | CCOC(=O)c1c(C)[nH]c(C)c1S(=O)(=O)N1CCC(C(=O)NCc2ccccc2)CC1
705 | O=C(Cn1cnc2nc(N3CCCC(C(=O)NC4CC4)C3)sc2c1=O)Nc1ccc(F)c(F)c1 (stereo not drawn)
979 | COc1ccc(-c2nnc(-c3ccc(OC)c(S(=O)(=O)N4CCCCCC4)c3)o2)cc1OC
807 | CCC1CN2C=NC(N3CCN(C(=O)Nc4ccc(OC)c(Cl)c4)CC3)=CC2=N1 (stereo not drawn)
1090 | Cc1nc(-c2cn(C(C)C)c3ncccc23)sc1C(=O)Nc1ccccc1F
1220 | CCn1c(C(=O)N2CCN(c3ccc(F)cc3)CC2)cc2c(-c3cccs3)nn(-c3ccccc3)c21
832 | CCC(=O)N1CCc2cc(-c3ccc(C(=O)NC(C)C)cc3)ccc21
688 | CCc1noc(NC(C)=O)c1-c1ccc(OC)c(S(=O)(=O)Nc2ccc(OC)c(OC)c2)c1
767 | CN(C(=O)Cn1cncc(C(=O)NC2CCCC2)c1=O)c1ccccc1
883 | O=C(NCc1ccco1)C1CCN(c2nccnc2Sc2ccccc2)CC1
708 | CCOC(=O)c1c(C)oc2nc(C)nc(N3CCN(Cc4ccc5c(c4)OCO5)CC3)c12
999 | C=Cc1ccc(Cn2nc3c(S(=O)(=O)N4CCCCCC4)cccn3c2=O)cc1
1180 | COc1c(C(=O)Nc2ccc3c(c2)OCO3)sc2cc(Cl)ccc12
963 | CC1CCN(S(=O)(=O)N2CCCC(C(=O)Nc3ccccc3C(=O)c3ccccc3)C2)CC1 (stereo not drawn)
849 | Cc1noc(-c2ccnc(-n3cnc(C(=O)NCCC(C)C)c3)c2)n1
836 | CN(CC(=O)N1CCN(c2ccccc2F)CC1)S(=O)(=O)c1c[nH]c(C(=O)N2CCCCC2)c1
828 | Cc1ccc(NC(=O)CN2C(=O)C3CCCCN3c3ccc(S(=O)(=O)N(C)C)cc32)nc1 (stereo not drawn)
679 | c1ccc(-c2nc(-c3ccncc3)no2)c(OC2CCN(Cc3ccsc3)C2)c1 (stereo not drawn)
874 | Cc1ccc(NC(=O)CCCn2cccc2)cc1F
656 | Cc1nc(C)c(C(=O)N2CCC(C3CCN(S(C)(=O)=O)CC3)C2)s1 (stereo not drawn)
642 | O=C(NCC(O)c1ccsc1)Nc1cccs1 (stereo not drawn)
989 | CCOC(=O)c1ccccc1NC(=O)Cn1nc2ccc(-c3ccc(Cl)cc3)nn2c1=O

RP-LC retention time [s] | SMILES
717 | C[C@H]1CN(C(=O)c2ccc(C#N)cc2)C[C@@H]1c1nc(-c2ccncc2)no1
684 | O=C(Nc1ccc2nc3n(c(=O)c2c1)CCCCC3)C(=O)N1CCCC1
734 | COc1ccc(C2(CNC(=O)Cc3cccs3)CCOCC2)cc1
808 | Cc1nn(-c2ccc(F)cc2)c2c1c(=O)c(C(=O)NCc1cccs1)cn2C
1070 | CSc1ccc(-c2noc(Cn3c(=O)n(-c4cccc(C)c4)c(=O)c4sccc43)n2)cc1
650 | CC(C)N1CCC(c2nnc3n2CCN(S(=O)(=O)c2ccc(C(F)(F)F)cc2)C3)C1 (stereo not drawn)
640 | Cc1ccc2c(c1)c(=O)c1c(n2C)CCN(CC(=O)Nc2ccccc2Cl)C1
666 | COc1ccc(OC)c(S(=O)(=O)N2CC(N3CC(C(=O)N4CCCC4)CC3=O)C2)c1 (stereo not drawn)
599 | CC(C)n1c(-c2cccc(C(=O)NCCN3CCCCC3)c2)nc2cccnc21
758 | CCn1cnc2ccc(-c3noc(-c4ccccc4)n3)cc21
656 | NC(=O)C1CCN(C(=O)c2ccc(Cl)c(Cl)c2)CC1
909 | CN(C)S(=O)(=O)c1ccc(-c2nnc(C(=O)NCc3ccc(Cl)cc3)o2)cc1
708 | CC(C)C(=O)N1CCc2c(c(C(=O)NCc3ccc4c(c3)OCO4)nn2C)C1
680 | COc1ncc(C(=O)NCc2ccccc2F)cn1
828 | CC(C)[Si]1(C(C)C)OCC2OC(n3cnc4c(N)ncnc43)C(N)C2O[Si](C(C)C)(C(C)C)O1 (stereo not drawn)
646 | CC(=O)NCc1csc(C2CCN(C(=O)COc3ccccc3)CC2)n1
659 | Cc1cc(C(=O)N2CCN(c3ccc(-c4cccs4)nn3)CC2)no1
867 | CCOC(=O)c1c(C)[nH]c(C(=O)N2CCCC(C(=O)NCCCc3ccccc3)C2)c1C (stereo not drawn)
703 | Cc1oc(-c2[nH]ncc2C(=O)N(C)C)cc1S(=O)(=O)Nc1ccc(Cl)cc1
742 | O=C(NCCn1nnc2cc(C(=O)N3CCCC3)ccc21)Nc1ccc(Br)cc1F
665 | CC(C)(C)NS(=O)(=O)CCNC(=O)c1ccccc1
682 | COc1ccc2cc(-c3nc(-c4ccc(S(C)=O)cc4)[nH]c3-c3ccncc3)ccc2c1 (stereo not drawn)

RP-LC retention time [s] | SMILES
921 | CCCC(=O)NCCc1csc(-c2ccc(Cl)cc2)n1
873 | CCCCNc1nc(-c2ccc(Cl)cc2)nc2ccccc12
868 | CCOc1ccccc1NC(=O)C1CCN(S(=O)(=O)c2cn(C)cn2)CC1
1080 | CCc1nc(-c2csc(S(=O)(=O)N3CCCC(C(=O)Nc4c(C)cccc4CC)C3)c2)no1 (stereo not drawn)
876 | CC(C)n1cnc(S(=O)(=O)N2CCC(C(=O)N3CCN(c4cccc(Cl)c4)CC3)CC2)c1
1290 | CC(C)c1ccc(-c2nc(C3CC(=O)N(c4ccc(F)c(Cl)c4)C3)no2)cc1 (stereo not drawn)
660 | COc1cccc(-c2cc(N3CCN(C(=O)Nc4ccc5c(c4)OCCO5)CC3)ncn2)c1
915 | COc1ccc(C(=O)N2CCC(COCc3ccccc3)CC2)cc1
733 | Nc1ccc(S(=O)(=O)NCC2CCCCO2)cc1 (stereo not drawn)
554 | OC1(c2ccccn2)CCOC2(CCN(Cc3cccc(F)c3)CC2)C1 (stereo not drawn)
676 | CC(C)OC(=O)c1ncoc1-c1ccccc1C(=O)NCC1CCCO1 (stereo not drawn)
734 | COc1ccc(C(=O)N2CCC3(CC2)NC(=O)c2cc(F)ccc2N3C)c(OC)c1
737 | COc1ccc(CCC(=O)Nc2cnn(-c3ncc(N(C)C)cn3)c2)cc1
1220 | CCc1nc2cc(-c3noc(-c4cccnc4SC)n3)ccc2o1
1040 | Cc1ccc(S(=O)(=O)N2CCC(C)(C(=O)NCc3ccccc3C)CC2)c(C)c1
885 | Cc1ccccc1-c1nnc(COc2ccc(NC(=O)C3CCC3)cc2)o1
766 | Cc1ccccc1S(=O)(=O)N1CCn2c(nn(CC3CC3)c2=O)C1
802 | Cc1ccccc1NC(=O)C1CCCN(C(=O)c2nn(C)c3c2CN(C(=O)C(C)(C)C)CC3)C1 (stereo not drawn)
615 | Nc1nc(Nc2ccccc2Cl)nc2ccccc12
687 | CCCc1nc(C(C)(C)O)c(C(=O)O)n1Cc1ccc(-c2ccccc2-c2nn[nH]n2)cc1
678 | CCc1nncn1C1CCN(S(=O)(=O)c2cccc(F)c2)CC1
1160 | COc1ccccc1-n1nnc(C(=O)OCc2nc(-c3cccc(Cl)c3)oc2C)c1C

RP-LC retention time [s] | SMILES
586 | Cc1ccnc(OCC(=O)NC(C)C)n1
789 | O=C(NCC1CCCO1)C1CCN(S(=O)(=O)c2ccc(-c3noc(C4CC4)n3)cc2)CC1 (stereo not drawn)
1170 | Cc1cccc(-c2noc(Cn3c(=O)n(C(C)C)c(=O)c4ccccc43)n2)c1
604 | CCOC(=O)c1[nH]c(C)c(CCC(=O)N2CCC(C(=O)NCCCN3CCCC(C)C3)CC2)c1C (stereo not drawn)
632 | Cn1cc(-c2ccncc2)cc1C(=O)N1CCN(c2ccc(F)cc2)CC1
998 | Cc1cc(C)cc(Nc2nc(C)cc3nn(CC(=O)NC4CCCC4)c(=O)n23)c1
913 | O=C(CN1C(=O)CCc2cc(Br)ccc21)N1CCN(c2ccccc2)CC1
803 | CCN1C(=O)c2cccnc2Sc2cc(C(=O)NCc3ccccc3F)ccc21
881 | CC1(C)C(=O)N(CC(=O)NCc2ccccc2Cl)c2ccccc21
702 | NC(=O)C1CCN(C(=O)CSc2nc3c(c(-c4ccccc4)n2)CCCC3)CC1
711 | COC(=O)Cn1nc2ccc(S(=O)(=O)N3CCSCC3)cn2c1=O
653 | Cc1cc(NC(=O)NC(=O)c2ccccc2NC(=O)CN)ccc1Oc1ncc(Br)cn1
815 | Cc1onc(-c2ccccc2Cl)c1C(=O)NC1C(=O)N2C1SC(C)(C)C2C(=O)O (stereo not drawn)
774 | CC1(C(=O)Nc2ccc(Cl)cc2F)Oc2cccnc2NC1=O (stereo not drawn)
759 | O=C(CC1CCN(C(=O)NCCc2ccccc2)CC1)N1CCCCC1
691 | CC(=O)N1CCC(C2CCN(C(=O)C3CC=CCC3)C2)CC1 (stereo not drawn)
640 | Cn1cc(CCN2CCC(C(=O)NCc3ccc(F)cc3Cl)CC2)c2cccnc21
776 | Cc1cc(OCC(=O)Nc2ccc3c(c2)OCO3)nc(N2CCN(c3ccccc3)CC2)n1
776 | CCn1c(=O)n(CC(=O)NCCN2CCC(C)CC2)c(=O)c2cnc(-c3ccc(Cl)cc3)nc21

SMILES | RP-LC retention time [s]
CCNC(=O)N1[C@H]2CC[C@@H]1c1cnc(-c3ccccc3)nc1C2 | 735
CCN1CCN(C(=O)Cc2c(C)nc3nc(-c4ccc(C(C)(C)C)cc4)nn3c2C)CC1 | 673
Cc1ncc2c(n1)C[C@@H]1CC[C@H]2N1C(=O)c1sccc1C | 654
